Data taken from paper PMC8213153 (PLoS ONE, 2021).
≈ marks a conversion by molar mass, not a printed value. Like-named read-outs stand apart in the source and are kept apart here.

Legend:
Format in all cases: cell-based
SARS-CoV-2 virus = assay: microbe, parasite or virus in culture; conditions: for IC50: Severe acute respiratory syndrome coronavirus 2, Vero
IL-10 = IL-10 level of virus-infected Vero cells (ELISA)
Protocol: (§1) To enable measurement of IL-6, IL-10 and TNF-α levels, the culture medium of the treated cells was collected in sterile micro-tubes and centrifuged at 3,500 rpm for 20 minutes. The supernatants were carefully collected and diluted with aquadest at a 1:5 volume ratio and vortexed until homogenous. The samples were deposited onto a well-plate, added to ELISA reagents (Bioassay Technology Laboratory, Shanghai, China), and incubated at 37°C for 60 minutes. Reagent substrate solution was then added to the well and incubated for ten minutes at 37°C. The samples were measured for antigen concentration using the optical density (OD) plotted into the standard curves of IL-6, IL-10, and TNF-α.

IL-6 = IL-6 level of virus-infected Vero cells (ELISA)
Protocol: as §1

[1] = Cytotoxicity (MTT) assay of single and dual combinatory drugs; conditions: human; for CC50 at 48 h: CompuSyn, n = 3, read-out: CC50
Protocol: Each tablet containing drugs was triturated and mixed until homogenous. Approximately 50 mg equivalent mass of drugs were weighed and added to dimethyl sulfoxide in order to solubilize the drugs. The suspension was sonicated in a water bath for 15 minutes before being added to Rosewell Park Memorial Institute (RPMI) media, sonicated again and vortexed to mix it until homogenous. The suspension was then filtered through a polycarbonate membrane with a pore size of 0.45 μm and then a pore size of 0.22 μm under aseptic conditions. The filtrate was mixed with 10% foetal bovine serum and penicillin streptomycin before being vortexed to produce a homogenous mixture to be used as a stock solution. The samples were prepared by diluting the stock solution of each drug with RPMI complete media at an appropriate level of dilution to produce a determined concentration. The dual combinatory drugs mixtures were prepared by mixing appropriate amounts of two drug stock solutions in order to produce a final concentration at the required level. The combinatory drugs were evaluated at both constant and non-constant ratios to evaluate their effects on the cytotoxicity, including; antagonistic, synergistic, or additive. A constant ratio of the mixture was achieved by adding drug solutions at the same ratio, thereby increasing each drug concentration, to produce dose escalation. In contrast, at a non-constant ratio, a fixed determined concentration of drug was added to increased doses of other drug solution in order to produce different levels of drug concentration.
The cytotoxic concentration (CC50) of drugs was performed by means of MTT assay at the Stem Cell Research and Development Center, Universitas Airlangga using human umbilical cord mesenchymal stem cells which had been obtained from human placenta tissue as approved by the Ethical Committee of Universitas Airlangga Hospital (Certificate number 101/KEH/2019 dated January 10, 2019). The cells were prepared as the primary cell culture and used for the cytotoxicity assay because of their sensitivity to chemicals. Cells were seeded into 96-well microplates at a concentration of 1x10^3 cells/well in 100 μL Alpha Minimum Essentials Medium (α-MEM, Gibco, USA) supplemented with 10% foetal bovine serum, 1% penicillin-streptomycin and 1% amphotericin-B. The plates were then incubated in a CO2 incubator at 37°C with 5% CO2 for 24 hours, at which point, the supernatant was replaced with α-MEM containing drugs at each concentration and incubated for a further 48 hours. Approximately 25μL of 3-(4,5-Dimethylthiazol-2-yl)-2,5-diphenyl tetrazolium-bromide (MTT) reagent at a concentration of 5mg/mL was subsequently added to each well and incubated for four hours at 37°C with 5% CO2. Purple formazan crystals were formed and observed under an inverted microscope. Dimethyl sulfoxide was added to each well with the complete solubilisation of formazan crystals subsequently being observed. The greater the number of formazan crystals formed, the lower the toxicity of the samples which were read for optical density of formazan using a multi reader at a measurement wavelength of 595 nm (Promega Glomax, USA). The CC50 value was analyzed by CompuSyn software (the ComboSyn Inc., accessed from www.combosyn.com).
In this study, the cytotoxicity assay was evaluated for single and dual combinatory drugs during a period of 48 hours of drug incubation. This assay was intended to evaluate the toxicity of dual combinatory drugs on normal cells. The combination ratios were calculated taking into consideration the usual therapeutic doses and plasma peak concentrations of the drugs. To determine this cytotoxicity, the drugs were mixed at both constant and non-constant ratios.

TNF-α = TNF-α level of virus-infected Vero cells (ELISA)
Protocol: as §1

[2] = HYDROXYCHLOROQUINE-AZITHROMYCIN series, read-out: Cell Viability (%)
[3] = HYDROXYCHLOROQUINE-DOXYCYCLINE series, read-out: Cell viability (%)
[4] = HYDROXYCHLOROQUINE-FAVIPIRAVIR series, read-out: Cell Viability (%)
[5] = HYDROXYCHLOROQUINE-LOPIRITO series, read-out: Cell Viability (%)

Q: For CCN(CCO)CCCC(C)Nc1ccnc2cc(Cl)ccc12 (stereo not shown) [HCQ, Hydroxychloroquine], which “Virus Titer” value (SARS-CoV-2 virus; 1 μg/mL, 24-h) is on record?
A: 38.64 viral protein fg/mL

Q: What about the “Virus Titer” value (SARS-CoV-2 virus; 1 μg/mL, 72-h) of the same compound?
A: 37.69 viral protein fg/mL

Q: What about the “Virus Titer” value (SARS-CoV-2 virus; 15 μg/mL, 48-h) of the same compound?
A: 37.86 viral protein fg/mL

Q: What about the “Drug concentration that produced an undetected virus copy number” value (SARS-CoV-2 virus; MoI 0.04, at 24, 48, and/or 72 hours' incubation) of the same compound?
A: 37.5 µg/mL

Q: What about the IC50 (SARS-CoV-2 virus; 24h, MoI 0.04) of the same compound?
A: 9.5 µg/mL (≈ 28.3 µM)

Q: And the IC50 (SARS-CoV-2 virus; 48h, MoI 0.04)?
A: 4.7 µg/mL (≈ 14 µM)

Q: What about the IC50 (SARS-CoV-2 virus; 72h, MoI 0.04) of the same compound?
A: 1.4 µg/mL (≈ 4.17 µM)

Q: What about the “Results (virus detection)” value (SARS-CoV-2 virus; at the drug concentration of the same line of Table 4, MoI 0.04) of the same compound?
A: 48, 72h virus undetected

Q: And the IL-10 (IL-10; 1 μg/mL, 24-h)?
A: 15.36 ± 0.75 pg/mL

Q: And the IL-10 (IL-10; 1 μg/mL, 48-h)?
A: 96.36 ± 0.71 pg/mL

Q: What about the IL-10 (IL-10; 1 μg/mL, 72-h) of the same compound?
A: 329.79 ± 0.08 pg/mL

Q: And the IL-10 (IL-10; 15 μg/mL, 24-h)?
A: 32.43 ± 1.19 pg/mL

Q: What about the IL-10 (IL-10; 15 μg/mL, 72-h) of the same compound?
A: 258.02 ± 9.73 pg/mL

Q: What about the IL-10 (IL-10; 15 μg/mL, 48h) of the same compound?
A: ↗↗ (15 μg/mL; 48h)

Q: And the “IL-10 levels (in words)” value (IL-10; Table 5)?
A: increased

Q: What about the IL-6 (IL-6; 1 μg/mL, 24-h) of the same compound?
A: 15.91 ± 0.99 ng/L

Q: And the IL-6 (IL-6; 1 μg/mL, 48-h)?
A: 36.41 ± 2.01 ng/L

Q: And the IL-6 (IL-6; 1 μg/mL, 72-h)?
A: 47.64 ± 2.15 ng/L

Q: And the IL-6 (IL-6; 1 μg/mL, 24h)?
A: ↘↘ (1 μg/mL; 24h)

Q: What about the IL-6 (IL-6; 15 μg/mL, 24-h) of the same compound?
A: 15.91 ± 1.41 ng/L

Q: And the IL-6 (IL-6; 15 μg/mL, 48-h)?
A: 36.41 ± 0.89 ng/L

Q: What about the IL-6 (IL-6; 15 μg/mL, 72-h) of the same compound?
A: 39.80 ± 0.48 ng/L

Q: And the “IL-6 (in words)” value (IL-6; Table 5)?
A: reduced

Q: What about the CC50 at 48 h ([1]; HCQ-AZI experiment (Fig 7)) of the same compound?
A: 5940 µg/mL

Q: What about the CC50 at 48 h ([1]; HCQ-DOXY experiment (Fig 8)) of the same compound?
A: 1500 µg/mL

Q: And the CC50 at 48 h ([1]; HCQ-FAVI experiment (Fig 10))?
A: 11.8 µg/mL

Q: What about the CC50 at 48 h ([1]; HCQ-LOPIRITO experiment (Fig 11)) of the same compound?
A: 2.51 µg/mL

Q: And the viability at 48 h, 0.2 μg/mL [1, 2]?
A: 85.6%

Q: What about the viability at 48 h, 2 μg/mL [1, 2] of the same compound?
A: 91%

Q: What about the viability at 48 h, 10 μg/mL [1, 2] of the same compound?
A: 94.4%

Q: And the viability at 48 h, 100 μg/mL [1, 2]?
A: 46.6%

Q: What about the viability at 48 h, 400 μg/mL [1, 2] of the same compound?
A: 68.6%

Q: What about the viability at 48 h, 0.2 μg/mL [1, 3] of the same compound?
A: 97.1%

Q: What about the viability at 48 h, 2 μg/mL [1, 3] of the same compound?
A: 97%

Q: And the viability at 48 h, 10 μg/mL [1, 3]?
A: 98.9%

Q: What about the viability at 48 h, 100 μg/mL [1, 3] of the same compound?
A: 62.1%

Q: What about the viability at 48 h, 400 μg/mL [1, 3] of the same compound?
A: 56.9%

Q: And the viability at 48 h, 0.2 μg/mL [1, 4]?
A: 51.5%

Q: What about the viability at 48 h, 2 μg/mL [1, 4] of the same compound?
A: 81.9%

Q: What about the viability at 48 h, 10 μg/mL [1, 4] of the same compound?
A: 93.7%

Q: And the viability at 48 h, 100 μg/mL [1, 4]?
A: 13.3%

Q: And the viability at 48 h, 400 μg/mL [1, 4]?
A: 9.5%

Q: And the viability at 48 h, 0.2 μg/mL [1, 5]?
A: 35.9%

Q: What about the viability at 48 h, 2 μg/mL [1, 5] of the same compound?
A: 61.7%

Q: And the viability at 48 h, 10 μg/mL [1, 5]?
A: 81.4%

Q: What about the viability at 48 h, 100 μg/mL [1, 5] of the same compound?
A: 33%

Q: What about the viability at 48 h, 400 μg/mL [1, 5] of the same compound?
A: 7.4%

Q: And the TNF-α (TNF-α; 1 μg/mL, 24-h)?
A: 4.21 ± 0.31 pg/mL

Q: And the TNF-α (TNF-α; 1 μg/mL, 72-h)?
A: 548.17 ± 1.44 pg/mL

Q: And the TNF-α (TNF-α; 15 μg/mL, 72-h)?
A: 411.10 ± 0.18 pg/mL

Q: What about the TNF-α (TNF-α; 24, 48, and 72 hours, cell without concentration) of the same compound?
A: No effects

Q: What about the “TNF-α levels (in words)” value (TNF-α; Table 5) of the same compound?
A: no effects
